# Data taken from patent US20230398114A1, “METHODS OF TREATING CORONAVIRUS DISEASE AND COMPOUNDS FOR SAME” (priority 2020, published 2023).
# “And” between values parts separate entries of the source, which are not always exact repeats. Equal entries are not always repeated. Where two headings read alike, the source gives them in different places.
# Key:
# [1] = tested on: SARS-CoV-2; settings: human hepatoma cell line (Huh 7.5 cells) infected with SARS-CoV-2; cited from earlier work
# [2] = tested on: USA-WA1/2020 (SARS-CoV-2) virus; type: in vivo, K18-hACE2 mice; settings: for Lung (log10 TCID50/mL), group AVG: day 6, 7 mice per group, Mebendazole 50 mg/kg po; for Lung (log10 TCID50/mL), group AVG / Lung (log10 TCID50/mL), individual animals: Imatinib 100 mg/kg, Niclosamide 200 mg/kg, alone or combined; for Lung (log10 TCID50/mL), individual animals: day 6, Mebendazole 50 mg/kg po once daily
# [3] = cited from earlier work
# [4] = tested on: SARS-CoV-2 (USA-WA1/2020 Isolate); experiment: microbe, parasite or virus in culture; type: cell-based; settings: Calu-3 cells
# [5] = tested on: USA-WA1/2020 (SARS-CoV-2) virus; type: in vivo, K18-hACE2 mice; settings: for Viral content by lung RT-qPCR, Log10, group AVG / Viral content by lung RT-qPCR, Mean Result, group AVG: day 6, 7 mice per group; for Viral content by lung RT-qPCR, Log10, group AVG / Viral content by lung RT-qPCR, Mean Result, group AVG / Viral content by lung RT-qPCR, Log10 (individual animals) / Viral content by lung RT-qPCR, Mean Result (individual animals): Imatinib 100 mg/kg, Niclosamide 200 mg/kg, alone or combined; for Viral content by lung RT-qPCR, Log10 (individual animals) / Viral content by lung RT-qPCR, Mean Result (individual animals): day 6, oral gavage once daily, Mebendazole 50 mg/kg
# [6] = tested on: human coronavirus NL63; settings: microtubule inhibitor, compared with actin inhibitors; cited from earlier work
# [7] = tested on: NR-53516 SARS-Related Coronavirus 2 Isolate New York—PV09158/2020; type: cell-based, SARS-CoV-2; settings: Vero-76 cells, after 4 days
# [8] = tested on: Calu-3; settings: Calu-3 cells, any concentration tested up to 100 μM
# [9] = target: Mast/stem cell growth factor receptor Kit (Homo sapiens, UniProt P10721); settings: cited from earlier work
# Chain of Mast/stem cell growth factor receptor Kit (P10721 26-976, species assumed): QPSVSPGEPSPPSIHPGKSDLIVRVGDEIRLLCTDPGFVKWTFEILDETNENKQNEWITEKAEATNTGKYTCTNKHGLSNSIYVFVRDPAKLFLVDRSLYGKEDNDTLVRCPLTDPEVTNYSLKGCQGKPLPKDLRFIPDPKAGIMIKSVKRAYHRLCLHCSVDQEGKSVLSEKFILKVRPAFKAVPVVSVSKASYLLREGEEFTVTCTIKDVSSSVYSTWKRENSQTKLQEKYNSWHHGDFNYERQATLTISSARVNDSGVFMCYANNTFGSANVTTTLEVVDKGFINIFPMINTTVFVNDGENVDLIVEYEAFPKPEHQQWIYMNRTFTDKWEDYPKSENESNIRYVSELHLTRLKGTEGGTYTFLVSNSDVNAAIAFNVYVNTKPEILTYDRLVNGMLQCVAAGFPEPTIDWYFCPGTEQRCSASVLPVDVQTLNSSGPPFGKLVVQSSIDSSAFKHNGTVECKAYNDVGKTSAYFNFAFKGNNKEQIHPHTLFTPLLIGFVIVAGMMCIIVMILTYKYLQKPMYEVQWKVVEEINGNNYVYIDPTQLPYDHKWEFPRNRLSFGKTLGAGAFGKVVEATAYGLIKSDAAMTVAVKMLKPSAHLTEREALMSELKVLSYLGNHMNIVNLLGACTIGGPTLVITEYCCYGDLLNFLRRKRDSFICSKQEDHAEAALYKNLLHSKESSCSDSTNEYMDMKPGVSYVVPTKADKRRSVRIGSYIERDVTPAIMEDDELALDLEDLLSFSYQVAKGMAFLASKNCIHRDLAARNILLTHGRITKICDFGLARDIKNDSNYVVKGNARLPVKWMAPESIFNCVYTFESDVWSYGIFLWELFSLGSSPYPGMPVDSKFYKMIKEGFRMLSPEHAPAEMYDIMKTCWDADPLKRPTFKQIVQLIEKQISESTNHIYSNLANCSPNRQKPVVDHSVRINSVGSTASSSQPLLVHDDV
# [10] = oral Imatinib dose of 400 mg/day; cited from earlier work
# [11] = tested on: Vero 76 African green monkey kidney cells; settings: Vero 76 cells, any concentration tested up to 100 μM
# [12] = day 6, Mebendazole 50 mg/kg po, alone or with Imatinib 100 mg/kg po
compound,measurement,setting,value
COC(=O)Nc1nc2ccc(C(=O)c3ccccc3)cc2[nH]1 [Mebendazole],antiviral activity compared to the Vero E6 cells,[1],appeared to be lower
same,"Lung (log10 TCID50/mL), group AVG",[2],5.8 log10 TCID50/mL
same,"Lung (log10 TCID50/mL), individual animals",[2],6.0 log10 TCID50/mL and 5.3 log10 TCID50/mL (2×) and 4.8 log10 TCID50/mL and 5.5 log10 TCID50/mL and 7.3 log10 TCID50/mL and 6.5 log10 TCID50/mL
same,share of a single oral dose that reaches systemic circulation,"[3]; humans, extensive first-pass metabolism",less than 10%
same,elimination half-life,[3]; in vivo,3 to 6 h
same,higher exposure at steady-state,[3]; long-term oral administration,~3 fold
same,share of an oral dose excreted in urine,[3]; oral dose,< 2%
same,inhibition of SARS-CoV-2 (in words),[4]; 2.3-5000 nM,Complete or near complete inhibition
same,EC50,"[4]; Severe acute respiratory syndrome coronavirus 2, 24 h pretreatment, read 48 h after inoculation, MOI 0.005, read-out: EC50, inhibition of SARS-CoV-2",0.102 µM
same,"Viral content by lung RT-qPCR, Log10, group AVG",[5]; Mebendazole 50 mg/kg po,7.8
same,"Viral content by lung RT-qPCR, Mean Result, group AVG",[5]; Mebendazole 50 mg/kg po,4.36E+07
same,"Viral content by lung RT-qPCR, Log10 (individual animals)",[5],7.9 (2×) and 7.7 and 7.3 (2×) and 7.6 and 7.5
same,"Viral content by lung RT-qPCR, Mean Result (individual animals)",[5],7.15E+07 and 4.97E+07 and 7.76E+07 and 1.90E+07 and 2.03E+07 and 3.73E+07 and 2.95E+07
same,Mean % Reduction of Lung Tissue RT-qPCR Titers vs. the Group Mean of Placebo Treated Mice,[5]; [12],44.2%
same,Percent Reduction of Lung Tissue RT-qPCR Titers (Individual Animals) vs. the Group Mean of Placebo Treated Mice,[5]; [12],8.45% and 36.36% and 0.64% and 75.67% and 74.01% and 52.24% and 62.23%
COC(=O)Nc1nc2ccc(C(=O)c3cccs3)cc2[nH]1 [nocodazole],reduction of virus entry,[6],did not
COc1cc(Nc2c(C#N)cnc3cc(OCCCN4CCN(C)CC4)c(OC)cc23)c(Cl)cc1Cl [Bosutinib],reduction in viral load (Average Virus TCID50/ml*10^6),[7]; 50 nano molar,47.3%
COc1cc2ncnc(Nc3ccc(F)c(Cl)c3)c2cc1OCCCN1CCOCC1 [Gefitinib],reduction in viral load (Average Virus TCID50/ml*10^6),[7]; 50 nano molar,53.54%
Cc1ccc(NC(=O)c2ccc(CN3CCN(C)CC3)cc2)cc1Nc1nccc(-c2cccnc2)n1 [Imatinib],cytotoxicity (MTT),[8],no cytotoxicity was observed
same,"known to target (value in brackets, measure not stated)",[9],16 nM
same,expected trough plasma concentration,[10],1.7 µM
same,animals positively affected (lung TCID50),"[2]; day 6, 7 animals per group",a single animal
same,"Lung (log10 TCID50/mL), group AVG",[2],7.4 log10 TCID50/mL
same,"Lung (log10 TCID50/mL), individual animals",[2],8.3 log10 TCID50/mL and 7.5 log10 TCID50/mL and 5.3 log10 TCID50/mL and 7.6 log10 TCID50/mL and 8.5 log10 TCID50/mL and 8.0 log10 TCID50/mL and 6.5 log10 TCID50/mL
same,"Viral content by lung RT-qPCR, Log10, group AVG",[5]; Mebendazole 50 mg/kg po,7.8
same,"Viral content by lung RT-qPCR, Mean Result, group AVG",[5]; Mebendazole 50 mg/kg po,9.54E+07
same,"Viral content by lung RT-qPCR, Log10 (individual animals)",[5],7.6 and 7.7 and 7.9 (2×) and 8.0 and 7.3 and 8.5
same,"Viral content by lung RT-qPCR, Mean Result (individual animals)",[5],3.67E+07 and 5.37E+07 and 7.80E+07 and 9.13E+07 and 2.15E+07 and 7.53E+07 and 3.12E+08
same,cytotoxicity (MTT),[11],no cytotoxicity was observed
same,reduction in viral load (Average Virus TCID50/ml*10^6),[7]; 10 micro molar,29.6%
CNC(=O)c1ccccc1Sc1ccc2c(/C=C/c3ccccn3)n[nH]c2c1 [Axitinib],reduction in viral load (Average Virus TCID50/ml*10^6),[7]; 500 nano molar,66.4%
O=C(Nc1ccc([N+](=O)[O-])cc1Cl)c1cc(Cl)ccc1O [Niclosamide],"Lung (log10 TCID50/mL), group AVG",[2],6.1 log10 TCID50/mL
same,"Lung (log10 TCID50/mL), individual animals",[2],6.3 log10 TCID50/mL and 5.5 log10 TCID50/mL (3×) and 8.5 log10 TCID50/mL and 6.8 log10 TCID50/mL and 4.3 log10 TCID50/mL
same,"Viral content by lung RT-qPCR, Log10, group AVG",[5]; Mebendazole 50 mg/kg po,7.7
same,"Viral content by lung RT-qPCR, Mean Result, group AVG",[5]; Mebendazole 50 mg/kg po,8.46E+07
same,"Viral content by lung RT-qPCR, Log10 (individual animals)",[5],7.6 and 6.7 and 7.5 (2×) and 8.0 and 8.5 and 7.9
same,"Viral content by lung RT-qPCR, Mean Result (individual animals)",[5],4.28E+07 and 5.54E+06 and 3.04E+07 and 9.85E+07 and 3.08E+08 and 7.72E+07 and 2.97E+07
